Assay results as given in patent US8993527B2, “Methods, compositions, and formulations for preventing or reducing adverse effects in a patient” (Pericor Therapeutics, Inc., priority 2005, dated 2015).
Where two headings read alike, the source gives them in different places.

What was measured:
[1] = tested on: mast cells; assay: AICA riboside: mast cell leukotriene C4 release; type: cell-based, mouse; conditions: 100 μM pretreatment for six days
[2] = tested on: patients undergoing CABG surgery; assay: Phase 2 CABG trial: myocardial ischemia by Holter ECG and TEE; type: in vivo, human; conditions: for Isch min/h monitored: postbypass, listed as AICA riboside
Procedure: The evaluation of Holter tapes and echo videotapes was performed centrally by two independent blinded observers; if there was disagreement between the two, a third observer was used to “break the tie.” The same observers were used throughout the study. 5. Ischemic Events-TEE. Ischemic event data were evaluated during two time periods-pre-bypass and post-bypass, using the following analysis: a) The number of patients with ischemic events was compared across the groups using Fisher's exact test. This analysis also included pre-post changes and pre- and post-combined. b) For patients with events, analysis of the mean duration and severity of ischemia was done. […] For severity (an ordinary variable, 0-4 scale) and number of events, the nonparametric test was used. […] 6. Ischemic Events-ECG. The analysis of ischemic events indicated by ECG was done using the same methods as the echo events. The time periods analyzed were: (a) baseline (Holter start to infusion start), (b) pre-bypass (infusion start to bypass start), (c) post-bypass ([…] off to infusion end), and (d) post-treatment (infusion end to Holter end). For patients with events, the following variables were analyzed: mean duration, maximum ST change and area under the curve of significant ST segment deviation. Analysis of variance (ANOVA) was used. 3. Myocardial Ischemia. Myocardial ischemia was measured with continuous Holter ECG and TEE. […] ECG episodes of ischemia were defined as reversible S-T depression 1 mm or greater lasting 1 minute or longer. TEE data were recorded continuously during surgery at the level of the mid-papillary muscles of the left ventricle. The wall motion of each of the four segments was graded from 0-4 (normal to […] ischemia was defined by regional wall motion worsening at least 2 grades and lasting 1 minute or longer.

[3] = tested on: patients undergoing CABG surgery; type: in vivo
Procedure: All patients from all clinical trials were included: a total of 4043 patients undergoing CABG surgery, evaluable for efficacy, and randomized to receive either placebo (n=2031) or acadesine (0.1 mg-kg^−1-min^−1; n=2012) by intravenous infusion for 7 continuous hours and via the cardioplegia solution.
Individual patient data were collected prospectively using standardized forms and methods and double-data entry. A general parametric approach and analysis-by-patient meta-analysis were used, including both fixed effects and random effects models. Inclusion and exclusion criteria, general methodology, and outcome assessment techniques were similar for all trials.
Meta-analysis included all patients undergoing CABG surgery in the United States, Canada, and Europe who had received acadesine at a dose of 0.1 mg-kg^1min^1. No patients satisfying these criteria were excluded. All 5 studies were randomized, placebo controlled, double blinded, and performed with approval from the 81 participating McSPI institutions and with patient informed consent. Inclusion and exclusion criteria, general methods, and outcome assessment techniques were similar for all trials; with several exceptions (Table 1). […] For all patients, blinded study drug (acadesine or placebo) was administered intravenously, starting approximately 15 minutes before induction of anesthesia and continuing for a total of 7 hours to include the intraoperative (prebypass and postbypass) and immunediate postoperative (into the intensive care unit) periods.
Prior to surgery, investigators ascertained cardiac history and recorded cardiac catheterization information. The use of agents potentially affecting endogenous adenosine concentration (which could complicate the analysis of efficacy) was restricted, including dipyridamole, theophylline, adenosine, and pentoxifylline. All chronic cardiovascular medications, including nitrates, β-blockers, and calcium channel blockers, were continued until the time of surgery. During surgery, but prior to bypass, the usual monitors wore applied, anesthetic techniques were standardized, and hemodynamic variables (blood pressure, heart rate) were to be maintained within specific boundaries for trials 1013, 1016, and 1023; for trials […], guidelines for anesthetic use and hemodynamic control were recommended. For all studies, prophylactic use of cardiovascular agents having potential anti-ischemic properties (nitrates, calcium channel Mockers) was specifically excluded to avoid confounding data interpretation. During cardiopulmonary bypass, neither the surgical technique nor bypass procedures (including cardioplegia administration) were controlled for the phase 3 trials, and bypass typically was conducted using a membrane oxygenator and arterial filter with hemodilution and moderate systemic hypothermia. Following bypass, the use of inotropic and vasodilating agents (excluding the prophylactic use of anti-ischemic medications) and treatment of clinically detected ischemia were not controlled; all medications administered were recorded.
For all studies, the primary outcome, MI, and other secondary outcomes were ascertained and validated by IREF Coordinating Center investigators who were blinded to patient identity and group assignment. Secondary outcomes included cardiac death, stroke, life-threatening dysrhythmia, and severe heart failure (Table 1). For MI, repeated electrocardiograms (ECGs) were coded centrally by core investigators using Minnesota Code criteria. Creatine kinase-MB (CK-M13) concentrations were sampled approximately 18 times during the first 4 postoperative days and, for phase 3 studies, were analyzed centrally using an immunoenzymetric assay (Hybritech Tandem-E CK-MB II, SmithKline Beecham, Van Nuys, Calif.). The presence of infarction at autopsy was based on pathologic data from the respective institution and confirmed centrally by the Endpoint Committee.

[4] = death following myocardial infarction, acadesine vs placebo (n = 98)
[5] = patients with myocardial infarction, Acadesine (n = 71)
[6] = patients with myocardial infarction, Acadesine (n = 71), number of patients

SMILES: NC(=O)c1ncn([C@@H]2O[C@H](CO)[C@@H](O)[C@H]2O)c1N [1 (1-110), 5-amino-1-β-D-ribofuranosyl-imidazole-4-carboxamide]
- Leukotriene C4 release reduced by [1]: 75%
- Isch min/h monitored ([2]; High Dose): 27±20 min/h
- Isch min/h monitored ([2]; Low Dose): 40±15 min/h
- incidence of ECG ischemia, postbypass period ([2]; high dose): 11%
- incidence of ECG ischemia, prebypass period ([2]; high dose): 3%
- incidence of TEE ischemia, postbypass period ([2]; high dose): 24%
- incidence of TEE ischemia, prebypass period ([2]; high dose): 6%
- incidence of ECG ischemia, postbypass period ([2]; low dose): 22%
- incidence of ECG ischemia, prebypass period ([2]; low dose): 3%
- incidence of TEE ischemia, postbypass period ([2]; low dose): 27%
- incidence of TEE ischemia, prebypass period ([2]; low dose): 15%
- decrease of the incidence of perioperative myocardial infarction ([3]; 0.1 mg/kg/min for 7 hours vs placebo): 27%
- cardiac death following MI through postoperative day 4 ([3]; acadesine group (1 death/71 MIs), placebo 13.3%): 1.4%
- incidence of CVA ([3]; acadesine group (32/2012), placebo 2.3%): 1.6%
- fewer patients with an adverse outcome ([3]; acadesine group vs placebo, combined outcomes): 41
- incidence of infarction ([3]; acadesine group, placebo 4.9%): 3.6%
- cardiac deaths through postoperative day 4, number ([3]; acadesine group, placebo 26): 13
- Cardiac death at 28 days, patients ([3]; acadesine group, placebo 34): 20
- patients with myocardial infarction, number ([3]; acadesine group, placebo 98): 71
- autopsy-defined MI ([3]; acadesine patients, placebo 16/19): 2/11
- decrease of cardiac death following MI through postoperative day 4 ([3]; acadesine vs placebo): 89%
- decrease of the incidence of cardiac death through postoperative day 4 ([3]; acadesine vs placebo): 50%
- decrease of the incidence of combined outcome (MI, stroke, or cardiac death) ([3]; acadesine vs placebo): 26%
- noncardiac death ([3]; acadesine vs placebo): no effect
- reduction of the use of ventricular-assistance devices for severe postoperative heart failure ([3]; acadesine vs placebo): approximately one third
- post-MI deaths ([3]; acadesine-treated patients, placebo 21/98): 4/71
- cardiac death in the first 4 days in patients without MI or not evaluable for MI ([3]; acadesine-treated, placebo 0.7%): 0.6%
- Cardiac death by postoperative day 4, Reduction [3, 4]: 89%
- Cardiac death by postoperative day 28, Reduction [3, 4]: 79%
- Death by postoperative day 4, Reduction [3, 4]: 79%
- Death by postoperative day 28, Reduction [3, 4]: 74%
- cardiac failure, immediately life-threatening or prolonging hospitalization ([3]; human, in vivo, 7 h): 2.1%
- incidence of serious adverse events ([3]; human, in vivo, 7 h): 9.1%
- use of an intraaortic balloon pump ([3]; in vivo): 2.4%
- Cardiac death by postoperative day 4, (%) [3, 5]: 1 (1) %
- Cardiac death by postoperative day 28, (%) [3, 5]: 4%
- Death by postoperative day 4, (%) [3, 5]: 3%
- Death by postoperative day 28, (%) [3, 5]: 6%
- Cardiac death by postoperative day 4, No. [3, 6]: 1 (1)
- Cardiac death by postoperative day 28, No. [3, 6]: 3
- Death by postoperative day 4, No. [3, 6]: 2
- Death by postoperative day 28, No. [3, 6]: 4
- reduction in post-MI death ([3]; secondary analysis, acadesine vs placebo): 74%
- effect size for MI ([3]; trial 1016 (n=414)): 73%
- rate of stroke ([3]; trial 1016, placebo 4.2%): 0.5%
- combined adverse cardiovascular outcome (MI, CVA or cardiac death) ([3]; trial 1016, placebo […]): 1.9%
- infarction rate (Q wave and CK-MB or autopsy) ([3]; trial 1016, placebo […]): 1.5%
- effect size for MI ([3]; trial 1017 (n=821)): 23%
- effect size for MI ([3]; trial 1024 (n=2698)): 22%
